Laboratory results published in ChEMBL document CHEMBL1201862, “PubChem BioAssay data set” (2004).
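Grown in 96-well plates, cells were treated for 48 hours with each compound at five concentrations. Insufficient inhibition: endpoint recorded as highest concentration tested. GI50 = concentration required for 50% inhibition of growth.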 Activity calls are given as the source filed them. No stated cut-off is given here; in the data, active = GI50 up to about 1.1 µM and inactive = higher.

What was measured:
Experiment in all cases: DTP human tumour cell line panel, 48 h
786-0 = system: 786-0
A498 = system: A498
BT-549 = system: BT-549
EKVX = system: EKVX
HCT-116 = system: HCT-116
HOP-62 = system: HOP-62
HOP-92 = system: HOP-92
K562 = system: K562
KM12 = system: KM12
LOX IMVI = system: LOX IMVI
MCF7 = system: MCF7
Malme-3M = system: Malme-3M
NCI-H460 = system: NCI-H460
NCI-H522 = system: NCI-H522
NCI/ADR-RES = system: NCI/ADR-RES
OVCAR-4 = system: OVCAR-4
PC-3 = system: PC-3
SF-295 = system: SF-295
SK-MEL-2 = system: SK-MEL-2
SNB-19 = system: SNB-19

Measured: GI50

CC(CS(=O)(=O)Cc1ccccc1)C(N)=O (stereo not given)
inactive: 786-0 > 100 µM | A498 > 100 µM | BT-549 > 100 µM | EKVX > 100 µM | HCT-116 > 100 µM | HOP-62 > 100 µM | HOP-92 > 100 µM | K562 > 100 µM | KM12 > 100 µM | LOX IMVI > 100 µM | MCF7 > 100 µM | Malme-3M > 100 µM | NCI-H460 > 100 µM | NCI-H522 > 100 µM | NCI/ADR-RES > 100 µM | OVCAR-4 > 100 µM | PC-3 > 100 µM | SF-295 > 100 µM | SK-MEL-2 > 100 µM | SNB-19 > 100 µM

O=C(Nc1ccccc1)c1cc2cc(CCl)ccc2oc1=O
inactive: 786-0 48.8 µM | A498 13 µM | BT-549 > 100 µM | EKVX > 100 µM | HCT-116 > 100 µM | HOP-62 81.7 µM | HOP-92 > 100 µM | K562 62.2 µM | KM12 > 100 µM | LOX IMVI > 100 µM | MCF7 26.4 µM | Malme-3M > 100 µM | NCI-H460 > 100 µM | NCI-H522 70.3 µM | NCI/ADR-RES > 100 µM | OVCAR-4 > 100 µM | PC-3 > 100 µM | SF-295 45.5 µM | SK-MEL-2 4.8 µM | SNB-19 80.4 µM
